Consider eleven molecules from patent publication US8927500B2, “Peptidomimetic macrocycles” (Aileron Therapeutics, Inc., priority 2012, dated 2015).

The test system of experiment [1] is SJSA-1 cells. The experiment can be described thus: Cell lysis by peptidomimetic macrocycles (LDH release). The format is cell-based. To be noted: 1 h at 37C.
The test system of experiment [2] is Caspase 3. Kind of experiment: Caspase 3 detection assay in SJSA1 cells. The format is cell-based. The settings on record: 48 h, Caspase 3 activation over DMSO-treated cells; for caspase 0.3 uM: 0.3 uM peptide; for caspase 3 uM: 3 uM peptide; for caspase 10 uM: 10 uM peptide; for caspase 30 uM: 30 uM peptide.
For experiment [3], the target named is T1, MDMX (Homo sapiens, UniProt O15151).
T1 sequence (O15151 1-125): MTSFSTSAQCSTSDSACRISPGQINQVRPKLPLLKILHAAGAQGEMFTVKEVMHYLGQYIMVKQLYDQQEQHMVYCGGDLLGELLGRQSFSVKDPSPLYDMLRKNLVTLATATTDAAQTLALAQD
Kind of experiment: Competitive fluorescence polarization assay for MDMX. The settings on record: competitive FP assay; for IC50: read-out: IC50 (MDMX); for Ki: read-out: Ki (MDMX). The format is binding. Background: Polarisation of emitted light reports the rotation of a fluorescent probe.

Experiment [4] deals with MDM2 (Homo sapiens, UniProt Q00987). The experiment can be described thus: Competitive fluorescence polarization assay for MDM2. The format is binding. To be noted: competitive FP assay, MDM2; for IC50: read-out: IC50 (MDM2); for Ki: read-out: Ki (MDM2).
Sequence of MDM2 (Q00987 1-125): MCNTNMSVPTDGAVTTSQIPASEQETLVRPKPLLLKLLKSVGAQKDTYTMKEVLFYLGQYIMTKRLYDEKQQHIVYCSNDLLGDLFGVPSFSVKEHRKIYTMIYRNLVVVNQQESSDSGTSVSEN

SMILES strings stand for the structures. Where a SMILES comes first, the peptide text is derived from it. Bridges are numbered along the chain shown (N, C = ends). [ ]: non-standard residue; d: D form. R8 = C=CCCCCCC[C@@](C)(N)C(=O)O; Cha = N[C@@H](CC1CCCCC1)C(=O)O; hLeu = CC(C)CC[C@H](N)C(=O)O; S5 = C=CCCC[C@](C)(N)C(=O)O; Nle = CCCC[C@H](N)C(=O)O Some results are limits rather than exact numbers.

Turning to `CC[C@H](C)[C@H](NC(=O)[C@H](C)NC(=O)[C@H](C)NC(=O)[C@]1(C)CCCC=CCCCCCC[C@@](C)(NC(=O)[C@H](Cc2ccccc2)NC(=O)[C@@H](NC(=O)[C@H](CC(C)C)NC(C)=O)[C@@H](C)O)C(=O)N[C@@H](C)C(=O)N[C@@H](Cc2ccc(O)cc2)C(=O)N[C@@H](Cc2c[nH]c3ccccc23)C(=O)N[C@@H](C)C(=O)N[C@@H](CCC(N)=O)C(=O)N[C@@H](CC(C)C)C(=O)N1)C(=O)N[C@H](CC(C)C)C(N)=O` (single isomer, unassigned) [compound 81], in experiment [1], the “6.25 uM % Lysed cells (1 h LDH)” value turned out to be 1%, the “25 uM % Lysed cells (1 h LDH)” value was found to be 0% and the “50 uM % Lysed cells (1 h LDH)” value worked out at 0%. Moreover, in experiment [2], the “caspase 0.3 uM” value is 1, the “caspase 3 uM” value is 1, the “caspase 10 uM” value worked out at 6 and the “caspase 30 uM” value is 21.

Regarding `CC(=O)N[C@@H](CC(C)C)C(=O)N[C@H](C(=O)N[C@@H](Cc1ccccc1)C(=O)N[C@]1(C)CCCCCCC=CCCC[C@@](C)(C(=O)N[C@@H](CO)C(=O)N[C@@H](C)C(=O)N[C@@H](C)C(N)=O)NC(=O)[C@H](C2CCCC2)NC(=O)[C@H](CCC(N)=O)NC(=O)[C@H](C)NC(=O)[C@H](Cc2c[nH]c3ccccc23)NC(=O)[C@H](Cc2ccc(O)cc2)NC(=O)[C@H](CCC(=O)O)NC1=O)[C@@H](C)O` (single isomer, unassigned) [compound 149], in experiment [1], the “6.25 uM % Lysed cells (1 h LDH)” value is on record as 6%, the “25 uM % Lysed cells (1 h LDH)” value was determined as 7% and the “50 uM % Lysed cells (1 h LDH)” value came out at 21%. For the same molecule, in experiment [2], the “caspase 0.3 uM” value was 1, the “caspase 3 uM” value is reported as 2, the “caspase 10 uM” value worked out at 4 and the “caspase 30 uM” value worked out at 10.

In the case of `CC(=O)N[C@@H](CC(C)C)C(=O)N[C@H](C(=O)N[C@@H](Cc1ccccc1)C(=O)N[C@]1(C)CCCCCCC=CCCC[C@@](C)(C(=O)N[C@@H](CO)C(=O)N[C@@H](C)C(=O)N[C@@H](C)C(N)=O)NC(=O)[C@H](CC2CCC2)NC(=O)[C@H](CCC(N)=O)NC(=O)[C@H](C)NC(=O)[C@H](Cc2c[nH]c3ccccc23)NC(=O)[C@H](Cc2ccc(O)cc2)NC(=O)[C@H](CCC(=O)O)NC1=O)[C@@H](C)O` (single isomer, unassigned) [compound 153], in experiment [1], the “6.25 uM % Lysed cells (1 h LDH)” value came to 4%, the “25 uM % Lysed cells (1 h LDH)” value was 2% and the “50 uM % Lysed cells (1 h LDH)” value stood at 3%. For the same molecule, in experiment [2], the “caspase 0.3 uM” value came to 2, the “caspase 3 uM” value was determined as 10, the “caspase 10 uM” value stood at 15 and the “caspase 30 uM” value came out at 20.

For `CC(=O)N[C@@H](CC(C)C)C(=O)N[C@H](C(=O)N[C@@H](Cc1ccccc1)C(=O)N[C@]1(C)CCCCCCC=CCCC[C@@](C)(C(=O)N[C@@H](C)C(=O)N[C@@H](C)C(=O)N[C@@H](Cc2ccccc2)C(=O)N[C@H](C)C(N)=O)NC(=O)[C@H](CC(C)C)NC(=O)[C@H](CCC(N)=O)NC(=O)[C@H](C)NC(=O)[C@H](Cc2c[nH]c3ccccc23)NC(=O)[C@H](Cc2ccc(O)cc2)NC(=O)[C@H](CCC(=O)O)NC1=O)[C@@H](C)O` (single isomer, unassigned) [compound 219], in experiment [1], the “6.25 uM % Lysed cells (1 h LDH)” value turned out to be 0%, the “25 uM % Lysed cells (1 h LDH)” value is given as −1% and the “50 uM % Lysed cells (1 h LDH)” value is listed as 2%. Besides, in experiment [2], the “caspase 0.3 uM” value is recorded as 1, the “caspase 3 uM” value is listed as 5, the “caspase 10 uM” value amounted to 17 and the “caspase 30 uM” value was determined as 34.

For the molecule `CC[C@H](C)[C@H](NC(=O)[C@H](C)NC(=O)[C@H](C)NC(=O)[C@]1(C)CCCC=CCCCCCC[C@@](C)(NC(=O)[C@H](Cc2ccccc2)NC(=O)[C@@H](NC(=O)[C@H](CC(C)C)NC(C)=O)[C@@H](C)O)C(=O)N[C@@H](CCC(=O)O)C(=O)N[C@@H](Cc2c[nH]cn2)C(=O)N[C@@H](Cc2c[nH]c3ccccc23)C(=O)N[C@@H](C)C(=O)N[C@@H](CCC(N)=O)C(=O)N[C@@H](CC(C)C)C(=O)N1)C(=O)N[C@H](C)C(N)=O` (single isomer, unassigned) [compound 223], in experiment [1], the “6.25 uM % Lysed cells (1 h LDH)” value was −2%, the “25 uM % Lysed cells (1 h LDH)” value is recorded as −4% and the “50 uM % Lysed cells (1 h LDH)” value is reported as −1%. In experiment [2], the “caspase 0.3 uM” value came out at 1, the “caspase 3 uM” value is on record as 1, the “caspase 10 uM” value is given as 5 and the “caspase 30 uM” value was 18.

Turning to `CC(=O)N[C@@H](CC(C)C)C(=O)N[C@H](C(=O)N[C@@H](Cc1ccccc1)C(=O)N[C@]1(C)CCCCCCC=CCCC[C@@](C)(C(=O)N[C@@H](C)C(=O)N[C@@H](C)C(=O)N[C@@H](C)C(=O)N[C@@H](C)C(=O)N[C@@H](C)C(=O)N[C@H](C)C(N)=O)NC(=O)[C@H](CC(C)C)NC(=O)[C@H](CCC(N)=O)NC(=O)[C@H](C)NC(=O)[C@H](Cc2c[nH]c3cc(Cl)ccc23)NC(=O)[C@H](Cc2ccc(O)cc2)NC(=O)[C@H](C)NC1=O)[C@@H](C)O` (single isomer, unassigned) [compound 338], in experiment [1], the “6.25 uM % Lysed cells (1 h LDH)” value came to 0%, the “25 uM % Lysed cells (1 h LDH)” value is reported as 0% and the “50 uM % Lysed cells (1 h LDH)” value was 1%. In experiment [2], the “caspase 0.3 uM” value is 1, the “caspase 3 uM” value is 23, the “caspase 10 uM” value is 20 and the “caspase 30 uM” value is on record as 29. Besides, the “caspase 1 uM” value in experiment [2] (1 uM peptide) is 5.

`CC(=O)N[C@@H](Cc1c[nH]cn1)C(=O)N[C@@H](CC(C)C)C(=O)N[C@H](C(=O)N[C@@H](Cc1ccccc1)C(=O)N[C@]1(C)CCCCCCC=CCCC[C@@](C)(C(=O)N[C@@H](C)C(=O)N[C@@H](C)C(=O)N[C@@H](CCC(C)C)C(=O)N[C@@H](C)C(N)=O)NC(=O)[C@H](CC(C)C)NC(=O)[C@H](CCC(N)=O)NC(=O)[C@H](Cc2c[nH]cn2)NC(=O)[C@H](Cc2c[nH]c3ccccc23)NC(=O)[C@H](Cc2c[nH]cn2)NC(=O)[C@H](Cc2c[nH]cn2)NC1=O)[C@@H](C)O` [compound 32] (Ac-HLTF[R8]HHWHQL[S5]AA[hLeu]A-NH2; staple 5-12): in experiment [3], the half-inhibitory concentration (IC50) (usually the concentration that gives 50% inhibition) lay in the range of 100 to 1000 nM and the Ki (in general, a measure of affinity in units of concentration, obtained from inhibition or displacement) lay in the range of 10 to 100 nM. Besides, in experiment [4], the IC50 is 10 to 100 nM and the inhibitory constant (Ki) was less than 10 nM. For the same molecule, in experiment [1], the “6.25 uM % Lysed cells (1 h LDH)” value is given as 0%, the “25 uM % Lysed cells (1 h LDH)” value turned out to be 2% and the “50 uM % Lysed cells (1 h LDH)” value was found to be 0%.

Regarding `CCCC[C@H](NC(=O)[C@H](C)NC(=O)[C@H](CCC(N)=O)NC(=O)[C@H](Cc1c[nH]cn1)NC(=O)[C@]1(C)CCCC=CCCCCCC[C@@](C)(NC(=O)[C@H](Cc2ccccc2)NC(C)=O)C(=O)N[C@@H](C)C(=O)N[C@@H](Cc2ccc(O)cc2)C(=O)N[C@@H](Cc2c[nH]c3ccccc23)C(=O)N[C@@H](CO)C(=O)N[C@@H](C)C(=O)N[C@@H](CC(C)C)C(=O)N1)C(N)=O` [compound 39] (Ac-F[R8]AYWSAL[S5]HQA[Nle]-NH2; staple 2-9), in experiment [3], the IC50 was 100 to 1000 nM and the Ki was in the range of 100 to 1000 nM. For the same molecule, in experiment [4], the IC50 is more than 1000 nM and the Ki is 100 to 1000 nM. Also, in experiment [1], the “6.25 uM % Lysed cells (1 h LDH)” value stood at 0%, the “25 uM % Lysed cells (1 h LDH)” value stood at 0% and the “50 uM % Lysed cells (1 h LDH)” value was 3%.

For `CC(=O)N[C@@H](Cc1ccccc1)C(=O)N[C@]1(C)CCCCCCC=CCCC[C@@](C)(C(=O)N[C@@H](Cc2c[nH]cn2)C(=O)N[C@@H](CCCNC(=N)N)C(=O)N[C@@H](Cc2ccccc2)C(=O)N[C@@H](CC2CCCCC2)C(N)=O)NC(=O)[C@H](CC(C)C)NC(=O)[C@H](CCC(N)=O)NC(=O)[C@H](Cc2c[nH]cn2)NC(=O)[C@H](Cc2c[nH]c3ccccc23)NC(=O)[C@H](Cc2c[nH]cn2)NC(=O)[C@H](Cc2c[nH]cn2)NC1=O` [compound 55] (Ac-F[R8]HHWHQL[S5]HRF[Cha]-NH2; staple 2-9), in experiment [3], the IC50 is more than 1000 nM and the Ki lay within 100 to 1000 nM. In addition, in experiment [4], the IC50 was more than 1000 nM and the Ki lay in the range of 100 to 1000 nM. For the same molecule, in experiment [1], the “6.25 uM % Lysed cells (1 h LDH)” value is on record as 1%, the “25 uM % Lysed cells (1 h LDH)” value was found to be 9% and the “50 uM % Lysed cells (1 h LDH)” value came to 13%.

For the molecule `CSCC[C@H](NC(=O)[C@H](C)NC(=O)[C@H](C)NC(=O)[C@]1(C)CCCC=CCCCCCC[C@@](C)(NC(=O)[C@H](Cc2ccccc2)NC(=O)[C@@H](NC(=O)[C@H](CC(C)C)NC(C)=O)[C@@H](C)O)C(=O)N[C@@H](C)C(=O)N[C@@H](Cc2ccc(O)cc2)C(=O)N[C@@H](Cc2c[nH]c3ccccc23)C(=O)N[C@@H](C)C(=O)N[C@@H](C)C(=O)N[C@@H](CC(C)C)C(=O)N1)C(=O)N[C@H](C)C(N)=O` [compound 72] (Ac-LTF[R8]AYWAAL[S5]AAM[dA]-NH2; staple 4-11), in experiment [1], the “6.25 uM % Lysed cells (1 h LDH)” value worked out at 2%, the “25 uM % Lysed cells (1 h LDH)” value was 0% and the “50 uM % Lysed cells (1 h LDH)” value is given as 3%. Moreover, in experiment [2], the “caspase 0.3 uM” value is 1, the “caspase 3 uM” value is on record as 1, the “caspase 10 uM” value is reported as 4 and the “caspase 30 uM” value is listed as 10.

With `CC(=O)N[C@@H](CC(C)C)C(=O)N[C@H](C(=O)N[C@@H](Cc1ccccc1)C(=O)N[C@]1(C)CCCCCCC=CCCC[C@@](C)(C(=O)N[C@@H](C)C(=O)N[C@@H](C)C(=O)N[C@@H](Cc2c[nH]c3ccccc23)C(=O)N[C@H](C)C(N)=O)NC(=O)[C@H](CC(C)C)NC(=O)[C@H](CCC(N)=O)NC(=O)[C@H](C)NC(=O)[C@H](Cc2c[nH]c3ccccc23)NC(=O)[C@H](Cc2ccc(O)cc2)NC(=O)[C@H](C)NC1=O)[C@@H](C)O` [compound 211] (Ac-LTF[R8]AYWAQL[S5]AAW[dA]-NH2; staple 4-11), in experiment [3], the IC50 was in the range of 100 to 1000 nM and the Ki lay in the range of 10 to 100 nM. Besides, in experiment [4], the IC50 was less than 10 nM and the Ki is less than 10 nM. In experiment [1], the “6.25 uM % Lysed cells (1 h LDH)” value came out at 5%, the “25 uM % Lysed cells (1 h LDH)” value was found to be 3% and the “50 uM % Lysed cells (1 h LDH)” value amounted to 1%.
